For the experiment, the target named is NSP14 (Severe acute respiratory syndrome coronavirus 2, UniProt P0DTD1). Kind of experiment: NSP14 MTase inhibition assay at 37° C. (MTase-Glo SAH detection). Format: biochemical, SARS-CoV-2. The conditions noted are these: 0.3 nM NSP14, 2.5 μM SAM, 2.5 μM GpppA RNA, read-out: Nsp14 Mtase Inh. IC50. How it is done: NSP14 MTase assay at 37° C. (0.3 nM NSP14 as final enzyme concentration)
The NSP14 MTase assay at 37° C. is carried out in 384-well flat bottom polystyrene microplates (Greiner, 781075). Per well, 10 μl of 1×NSP14 reaction buffer (50 mM Tris-HCl, pH 7.5, 6 mM KCl, 1.25 mM MgCl2, 1 mM DTT, and 0.01% Tween-20) are dispensed in columns 1-23 using a Thermo Multidrop Combi dispenser (Thermo Scientific). 0.1 μl of serially diluted compounds in DMSO are dispensed into columns 1-22 of the assay microplates with a Janus 384 MDT NanoHead (PerkinElmer). In wells of column 23, which serve as negative controls, no compounds are added.
The NSP14 reaction is started by adding 4 μl of a 4× substrate solution containing S-adenosyl methionine (SAM, 10 μM) and GpppA RNA (10 μM) prepared in 1×NSP14 reaction buffer. Any addition of reagents is followed by a 30 second centrifugation at 500×g to ensure that all liquid was collected at the bottom of the well. The final concentrations of NSP14, SAM, and GpppA RNA are 0.3 nM, 2.5 μM, and 2.5 μM, respectively. The final reaction volume is 16 μl. Plates are sealed and incubated for 45 min at 37° C.
For SAH detection, 1 μl 5× MTase-Glo™ Reagent (Promega) is added to each well, plates are mixed for 1-2 minutes and incubated at room temperature for 30 minutes. 5 μl of room-temperature MTase-Glo™ Detection Solution (Promega) is added to each well, plates are mixed for 1-2 minutes and incubated at room temperature for 30 minutes. Luminescence signals of each well are recorded in relative light units (RLUs) using a Biotek Synergy Neo plate reader (BioTek, Winooski, VT). The SAH production is normalized against the positive control (PK, column 24) and negative control (NK, column 23) as follows: normalized % inhibition=100×(RLUsample-RLUaverageNK)/(RLUaveragePK-RLUaverageNK).

SMILES strings stand for the structures. Read-outs that look alike come from different tables or passages of the source. Bounds are passed on as bounds.

In the case of `Cc1c(S(=O)(=O)c2cc(F)c3[nH]nc(F)c3c2)cc(C(=O)N[C@@H]2CCN(c3ncc(F)cn3)C2)n1C` [A.67], the IC50 (45 min at 37° C.) was determined as 380 pM. On the same count and under the same terms, the same measure for `Cc1c(S(=O)(=O)c2ccc3[nH]ncc3c2)cc(C(=O)NC2CCN(c3ncc(F)cn3)CC2)n1C` [A.35]: 560 pM. Regarding `Cc1c(S(=O)(=O)c2ccc3[nH]ncc3c2)cc(C(=O)NCc2c(F)cc(CN(C)C)cc2F)n1C` [B.68], the IC50 (37° C.) was 4100 pM. Consider `Cc1c(S(=O)(=O)c2cc(Cl)c3[nH]ncc3c2)cc(C(=O)N[C@@H]2CCN(c3ccnnc3)C2)n1C` [A.119], for which, where the note is “45 min at 37° C.”, the IC50 is 370 pM. The same measure, in the same setting: as for `Cc1c(S(=O)(=O)c2ccc(=O)n(C)c2)cc(C(=O)NCc2cccc3cnn(C)c23)n1C` [A.15], the figure is 13400 pM. Take `Cc1c(S(=O)(=O)c2ccc3c(=O)[nH]ccc3c2)cc(C(=O)NCc2c(F)ccc3cnn(C4CC4)c23)n1C` [B.136]: under “37° C.”, the IC50 is less than 150 pM. As to `Cc1c(S(=O)(=O)c2ccc(C(C)O)cc2)cc(C(=O)NCc2cccc3cnn(C)c23)n1C` (stereo not drawn) [A.32, 4-[4-(1-hydroxyethyl)phenyl]sulfonyl-1,5-dimethyl-N-[(1-methylindazol-7-yl)methyl]pyrrole-2-carboxamide], the IC50 (45 min at 37° C.) stood at 389000 pM. With `Cc1c(S(=O)(=O)c2ccc3[nH]ncc3c2)cc(C(=O)N[C@@H]2CCN(c3ncc(F)cc3F)C2)n1C` [A.54], where the note is “45 min at 37° C.”, the IC50 is less than 150 pM. With `Cc1c(S(=O)(=O)c2ccc3[nH]ncc3n2)cc(C(=O)NCc2cccc3cnn(C4CC4)c23)n1C` [B.50], the IC50 (37° C.) was 51000 pM. For the compound `Cc1c(S(=O)(=O)c2ccc3[nH]ncc3c2)cc(C(=O)NCc2c[nH]c(=O)c3ncccc23)n1C` [B.155], the IC50 (37° C.) worked out at 300 pM.

As for `Cc1c(S(=O)(=O)c2ccc3[nH]ncc3c2)cc(C(=O)NCc2c(F)ccc(OCCCCC(=O)O)c2F)n1C` [B.125], the IC50 (37° C.) is less than 150 pM. In the case of `Cc1nn(C)cc1CNC(=O)c1cc(S(=O)(=O)c2ccc3[nH]ncc3c2)c(C)n1C` [B.152], for the setting “37° C.”, the IC50 turned out to be 20000 pM. Still for that read-out and setting: the same measure for `Cc1c(S(=O)(=O)c2ccc3[nH]ncc3c2)cc(C(=O)NCc2ccc(=O)[nH]c2)n1C` [B.104]: 27000 pM. As for `Cc1c(S(=O)(=O)c2ccc3c(cnn3C)c2)cc(C(=O)NCc2c(F)ccc3ncn(C4CC4)c23)n1C` [A.4, N-[(3-cyclopropyl-5-fluoro-benzimidazol-4-yl)methyl]-1,5-dimethyl-4-(1-methylindazol-5-yl)sulfonyl-pyrrole-2-carboxamide], the IC50 (45 min at 37° C.) worked out at 500 pM. For the compound `Cc1c(S(=O)(=O)c2cc(F)c3[nH]ncc3c2)cc(C(=O)NCc2cccc3cnn(C)c23)n1C` [B.9], the IC50 (37° C.) was 530 pM. `Cc1c(S(=O)(=O)c2ccc3[nH]ncc3c2)cc(C(=O)NCCCOc2ncc(F)cn2)n1C` [B.196]: where the note is “37° C.”, the IC50 worked out at 18000 pM. Still for that read-out and setting: as for `Cc1c(S(=O)(=O)c2ccc3[nH]ncc3c2)cc(C(=O)NCc2c(Cl)ccn(C)c2=O)n1C` [B.180], the figure is less than 150 pM. In the case of `Cc1c(S(=O)(=O)c2ccc3[nH]ncc3c2)cc(C(=O)N[C@@H]2CCN(c3cccc4c3cnn4C)C2)n1C` [A.61], for the setting “45 min at 37° C.”, the IC50 was 390 pM. For `Cc1c(S(=O)(=O)c2ccc3[nH]ncc3c2)cc(C(=O)N[C@@H]2CCN(c3cccn4nccc34)C2)n1C` [A.59], the IC50 (45 min at 37° C.) is 180 pM. As to `Cc1c(S(=O)(=O)c2ccc3[nH]ncc3c2)cc(C(=O)NCc2c(F)ccn(C)c2=O)n1C` [B.181], the IC50 (37° C.) worked out at 230 pM. Same read-out and setting: the same measure for `Cc1c(S(=O)(=O)c2ccc3[nH]nc(F)c3c2)cc(C(=O)NC2CCc3c2ccc(=O)n3C)n1C` (racemic) [B.178]: 21000 pM.

Turning to `Cc1c(S(=O)(=O)c2ccc3[nH]ncc3c2)cc(C(=O)NCCN(C)c2ncc(F)cn2)n1C` [B.198], under “37° C.”, the IC50 was found to be 16000 pM. Same read-out and setting: as for `Cc1c(S(=O)(=O)c2ccc3[nH]ncc3c2)cc(C(=O)NCc2cccc3c2N(C)C(=O)CC3)n1C` [B.15], the figure is 14000 pM. For `Cc1c(S(=O)(=O)c2ccc3[nH]ncc3c2)cc(C(=O)N[C@@H]2CCN(c3cccc(C#N)c3C#N)C2)n1C` [A.109], under “45 min at 37° C.”, the IC50 is less than 150 pM. `Cc1c(S(=O)(=O)c2cc(F)c3[nH]ncc3c2)cc(C(=O)NCc2c(F)ccc3cnn(C4CC4)c23)n1CCO` [B.89]: the IC50 (37° C.) came out at 100 pM. For `Cc1c(S(=O)(=O)c2ccc3[nH]ncc3c2)cc(C(=O)N[C@@H]2CCN(c3ccccc3C(F)(F)F)C2)n1C` [A.103], the IC50 (45 min at 37° C.) was 5100 pM. Consider `CN=S(=O)(NC(=O)c1cc(S(=O)(=O)c2ccc3[nH]ncc3c2)c(C)n1C)c1ccccc1` (racemic) [B.135, 4-(1H-indazol-5-ylsulfonyl)-1,5-dimethyl-N—(N-methyl-S-phenyl-sulfonimidoyl)pyrrole-2-carboxamide], for which, for the setting “37° C.”, the IC50 is 19000 pM.

Turning to `Cc1c(S(=O)(=O)c2ccc3[nH]ncc3c2)cc(C(=O)N[C@@H]2CCN(Cc3ccc(C#N)cn3)C2)n1C` [A.105], under “45 min at 37° C.”, the IC50 amounted to 14000 pM. As for `Cc1c(S(=O)(=O)c2ccc3[nH]ncc3c2)cc(C(=O)NCc2nccc3cnn(C4CC4)c23)n1C` [B.118], the IC50 (37° C.) amounted to 480 pM. Same read-out and setting: as for `Cc1c(S(=O)(=O)c2ccc3[nH]ncc3c2)cc(C(=O)NC2CCc3cccc(F)c32)n1C` (racemic) [B.110], the figure is 380 pM; as for `Cc1c(S(=O)(=O)c2ccc3[nH]ncc3c2)cc(C(=O)NCc2cccc3nnn(C4CC4)c23)n1C` [B.66], less than 150 pM; as for `Cc1c(S(=O)(=O)c2ccc3[nH]nc(F)c3c2)cc(C(=O)NCc2cccc3c(F)nn(C4CC4)c23)n1C` [B.80], 1500 pM. `Cc1c(S(=O)(=O)c2ccc3[nH]ncc3c2)cc(C(=O)NCc2c(F)cccc2OCCN(C)C)n1C` [B.78]: the IC50 (37° C.) is 2000 pM. Same read-out and setting: as for `Cc1c(S(=O)(=O)c2ccc(C(F)(F)F)cc2)cc(C(=O)NCc2cccc3cnn(C)c23)n1C` [B.6], the figure is 35000 pM. In the case of `Cc1c(S(=O)(=O)c2ccc3[nH]ncc3c2)cc(C(=O)N[C@@H]2CCN(c3cncnc3)C2)n1C` [A.73], the IC50 (45 min at 37° C.) amounted to 410 pM. Same read-out and setting: as for `Cc1c(S(=O)(=O)c2ccc3[nH]ncc3c2)cc(C(=O)N[C@@H]2CCN(c3cccc(C#N)c3)C2)n1C` [A.84], the figure is less than 150 pM; as for `Cc1c(S(=O)(=O)c2ccc3[nH]ncc3c2)cc(C(=O)NC2(CO)CCN(c3ncc(F)cn3)C2)n1C` (single isomer, unassigned) [A.116, 4-((1H-indazol-5-yl)sulfonyl)-N-(1-(5-fluoropyrimidin-2-yl)-3-(hydroxymethyl)pyrrolidin-3-yl)-1,5-dimethyl-1H-pyrrole-2-carboxamide], 44000 pM; as for `Cc1c(S(=O)(=O)c2ccccc2)cc(C(=O)NCc2c(F)ccc3occc23)n1C` [A.20], 22000 pM. `Cc1c(S(=O)(=O)c2ccc3[nH]nc(F)c3c2)cc(C(=O)NCc2c[nH]c(=O)c3cccnc23)n1C` [B.175]: for the setting “37° C.”, the IC50 is 3300 pM. As to `Cc1c(S(=O)(=O)c2ccc3[nH]ncc3c2)cc(C(=O)N[C@@H]2CCN(c3ccc(F)cn3)C2)n1C` [A.51], where the note is “45 min at 37° C.”, the IC50 was less than 150 pM. Regarding `Cc1c(S(=O)(=O)c2ccc3[nH]nc(F)c3c2)cc(C(=O)NCc2cncnc2N2CCC(F)(F)C2)n1C` [B.38], the IC50 (37° C.) is 560 pM. `COCC1(NC(=O)c2cc(S(=O)(=O)c3ccc4[nH]ncc4c3)c(C)n2C)CCN(c2ncc(F)cn2)C1` (single isomer, unassigned) [A.114, 4-((1H-indazol-5-yl)sulfonyl)-N-(1-(5-fluoropyrimidin-2-yl)-3-(methoxymethyl)pyrrolidin-3-yl)-1,5-dimethyl-1H-pyrrole-2-carboxamide]: the half-inhibitory concentration (IC50) (45 min at 37° C.) is 870 pM. As for `Cc1c(S(=O)(=O)c2cc(C#N)c3[nH]ncc3c2)cc(C(=O)NCc2c(F)ccc3cnn(C4CC4)c23)n1C` [B.98], the IC50 (37° C.) is 500 pM.

With `Cc1c(S(=O)(=O)c2ccc3[nH]ncc3c2)cc(C(=O)NCc2c(F)ccc3cnn(C4CC4)c23)n1C` [B.16], the IC50 (37° C.) amounted to 380 pM. Still for that read-out and setting: the same measure for `Cc1c(S(=O)(=O)c2ccc3[nH]ncc3c2)cc(C(=O)NCc2cncnc2N2CCC(F)(F)C2)n1C` [B.40]: 220 pM; for `Cc1c(S(=O)(=O)c2ccc3[nH]ncc3c2)cc(C(=O)NCc2cccc3nnn(C)c23)n1C` [B.34]: 200 pM; for `Cc1c(S(=O)(=O)c2cc3cn[nH]c3cn2)cc(C(=O)NCc2cccc3cnn(C4CC4)c23)n1C` [B.42]: 9300 pM. The same measure, in the same setting: as for `Cc1c(S(=O)(=O)c2ccc3[nH]ncc3c2)cc(C(=O)NCc2ccnn2C)n1C` [B.100], the figure is 12000 pM. On the same count and under the same terms, as for `Cc1c(S(=O)(=O)c2cc(F)c3[nH]nc(F)c3c2)cc(C(=O)NCc2c(F)ccc3cnn(C4CC4)c23)n1C` [B.99], the figure is 150 pM; as for `Cc1c(S(=O)(=O)c2ccc3c(c2)c(O)nn3C)cc(C(=O)NCc2c(F)ccc3cnn(C4CC4)c23)n1C` [B.111], 142000 pM. Take `Cc1c(S(=O)(=O)c2ccc3[nH]ncc3c2)cc(C(=O)NCc2c(F)cc(F)c3cnn(C)c23)n1C` [B.69]: the IC50 (37° C.) was less than 150 pM.

The record behind these values is patent US20260226034A1 (The Rockefeller University, priority 2023, published 2026).
